Assay results taken from publication PMC8026479 (Cancer Chemotherapy and Pharmacology, 2021).

Columns and labels:
[1] = Study G1T28-1-01 plasma PK, first-in-human single dose; type: in vivo; settings: for Vd: read-out: Vz
[2] = Study G1T28-03 Part 1 plasma PK (with topotecan); type: in vivo, human; settings: for Cmax / T1/2 / AUC(0-inf) / clearance / Vd / half-life: geometric mean; for Vd: read-out: Vz; for Tmax: range
Excerpt: G1T28-03 (NCT02514447) was a multicentre Phase Ib/IIa study in patients with previously treated ES-SCLC [14]. […] Part 1 was a Phase Ib, open-label, dose-finding portion. Part 2 was a Phase IIa, randomized, double-blind, placebo-controlled portion. […] In Part 1 of the study, blood samples for PK analysis were collected at prespecified time points on Cycle 1 Day 1 and Cycle 1 Day 4 for all patients.

[3] = both sexes, human, plasma, iv, 6 mg/m2, healthy volunteers, single 30-min IV 6 mg/m2 (n = 3), mean
[4] = both sexes, human, plasma, iv, 12 mg/m2, healthy volunteers, single 30-min IV 12 mg/m2 (n = 3), mean
[5] = both sexes, human, plasma, iv, 24 mg/m2, healthy volunteers, single 30-min IV 24 mg/m2 (n = 3), mean
[6] = both sexes, human, plasma, iv, 49 mg/m2, healthy volunteers, single 30-min IV 49 mg/m2 (n = 3), mean
[7] = both sexes, human, plasma, iv, 96 mg/m2, healthy volunteers, single 30-min IV 96 mg/m2 (n = 6), mean
[8] = both sexes, human, plasma, healthy volunteers, single 30-min IV 6 mg/m2 (n = 3), mean
[9] = both sexes, human, plasma, healthy volunteers, single 30-min IV 96 mg/m2 (n = 6), mean
[10] = both, human, plasma, intravenous, […]2, healthy volunteers, BED cohort […]2 (n = 12), mean
[11] = both, human, plasma, intravenous, […]2, healthy volunteers, both […]2 cohorts (n = 18), mean
[12] = both, human, plasma, iv, […]2, healthy volunteers, single 30-min IV […]2 SAD cohort (n = 6), mean
[13] = healthy volunteers, single 30-min IV 6 mg/m2 (n = 3), mean
[14] = healthy volunteers, single 30-min IV 96 mg/m2 (n = 6), mean
[15] = ES-SCLC + topotecan, 280 mg/m2, Cycle 1 Day 1 (n = 7)
[16] = human, plasma, 200 mg/m2, ES-SCLC + topotecan, 200 mg/m2, Cycle 1 Day 4 (n = 9)
[17] = human, plasma, 280 mg/m2, ES-SCLC + topotecan, 280 mg/m2, Cycle 1 Day 1 (n = 7)
[18] = human, plasma, 280 mg/m2, ES-SCLC + topotecan, 280 mg/m2, Cycle 1 Day 4 (n = 7)
[19] = human, plasma, ES-SCLC + topotecan, 200 mg/m2, Cycle 1 Day 1 (n = 10)
[20] = human, plasma, ES-SCLC + topotecan, 240 mg/m2, Cycle 1 Day 1 (n = 14)
[21] = human, plasma, ES-SCLC + topotecan, 240 mg/m2, Cycle 1 Day 4 (n = 15)

CN1CCN(c2ccc(Nc3ncc4cc5n(c4n3)C3(CCCCC3)CNC5=O)nc2)CC1 [trilaciclib]
clearance [1, 3]: 3130 mL/min
Vd [1, 3]: 1460 L
clearance [1, 4]: 2700 mL/min
Vd [1, 4]: 1770 L
clearance [1, 5]: 2930 mL/min
Vd [1, 5]: 2310 L
clearance [1, 6]: 2930 mL/min
Vd [1, 6]: 3430 L
clearance [1, 7]: 2370 mL/min
Vd [1, 7]: 3050 L
Tmax [1, 8]: 15 min
half-life [1, 8]: 319 min
half-life ([1]; both sexes, human, plasma, healthy volunteers, single 30-min IV 12 mg/m2 (n = 3), mean): 457 min
AUC(0-inf) ([1]; both sexes, human, plasma, healthy volunteers, single 30-min IV 12 mg/m2 (n = 3), mean, read-out: AUC0-inf): 143 ng·h/mL
half-life ([1]; both sexes, human, plasma, healthy volunteers, single 30-min IV 24 mg/m2 (n = 3), mean): 557 min
AUC(0-inf) ([1]; both sexes, human, plasma, healthy volunteers, single 30-min IV 24 mg/m2 (n = 3), mean, read-out: AUC0-inf): 279 ng·h/mL
Cmax ([1]; both sexes, human, plasma, healthy volunteers, single 30-min IV 24 mg/m2 (n = 3), mean, read-out: Cmax): 255 ng/mL
half-life ([1]; both sexes, human, plasma, healthy volunteers, single 30-min IV 49 mg/m2 (n = 3), mean): 774 min
Tmax [1, 9]: 22.2 min
half-life [1, 9]: 882 min
Tmax ([1]; both, human, plasma, intravenous, […]2): 28.2 min
clearance [1, 10]: 2100 mL/min
Vd [1, 10]: 2640 L
clearance [1, 11]: 2050 mL/min
Vd [1, 11]: 2580 L
half-life ([1]; both, human, plasma, iv, […]2): 870 min
clearance [1, 12]: 1950 mL/min
Vd [1, 12]: 2460 L
AUC(0-inf) [1, 13]: 66.6 ng·h/mL
Cmax [1, 13]: 50.4 ng/mL
Cmax ([1]; healthy volunteers, single 30-min IV 12 mg/m2 (n = 3), mean): 119 ng/mL
AUC(0-inf) ([1]; healthy volunteers, single 30-min IV 49 mg/m2 (n = 3), mean): 518 ng·h/mL
AUC(0-inf) [1, 14]: 1341 ng·h/mL
Cmax [1, 14]: 910 ng/mL
Cmax ([2]; ES-SCLC + topotecan, 200 mg/m2, Cycle 1 Day 4 (n = 9)): 1060 ng/mL
T1/2 ([2]; ES-SCLC + topotecan, 240 mg/m2, Cycle 1 Day 1 (n = 14)): 6.79 h
Cmax [2, 15]: 1110 ng/mL
T1/2 [2, 15]: 7.38 h
accumulation on repeated daily dosing ([2]; G1T28-03 Part 1, 280 mg/m2, Day 1 vs Day 4, not observed at lower dose levels): resulted in drug accumulation
AUC(0-inf) ([2]; human, plasma, 200 mg/m2, ES-SCLC + topotecan, 200 mg/m2, Cycle 1 Day 1 (n = 10), read-out: AUC0-inf): 2410 ng·h/mL
clearance [2, 16]: 2850 mL/min
Vd [2, 16]: 2120 L
Tmax [2, 16]: 22.8 to 34.8 min
AUC(0-inf) ([2]; human, plasma, 240 mg/m2, ES-SCLC + topotecan, 240 mg/m2, Cycle 1 Day 1 (n = 14), read-out: AUC0-inf): 2910 ng·h/mL
Tmax ([2]; human, plasma, 240 mg/m2, ES-SCLC + topotecan, 240 mg/m2, Cycle 1 Day 1 (n = 14)): 24 to 42 min
AUC(0-inf) ([2]; human, plasma, 240 mg/m2, ES-SCLC + topotecan, 240 mg/m2, Cycle 1 Day 4 (n = 15), read-out: AUCtau (AUC0-inf, footnote a)): 2880 ng·h/mL
Vd ([2]; human, plasma, 240 mg/m2, ES-SCLC + topotecan, 240 mg/m2, Cycle 1 Day 4 (n = 15)): 1730 L
clearance [2, 17]: 2680 mL/min
AUC(0-inf) ([2]; human, plasma, 280 mg/m2, ES-SCLC + topotecan, 280 mg/m2, Cycle 1 Day 1 (n = 7), read-out: AUC0-inf): 3490 ng·h/mL
Vd [2, 17]: 1720 L
Tmax [2, 17]: 25.2 to 37.2 min
clearance [2, 18]: 2080 mL/min
AUC(0-inf) ([2]; human, plasma, 280 mg/m2, ES-SCLC + topotecan, 280 mg/m2, Cycle 1 Day 4 (n = 7), read-out: AUCtau (AUC0-inf, footnote a)): 4520 ng·h/mL
Vd [2, 18]: 1530 L
Tmax [2, 18]: 25.2 to 33 min
clearance [2, 19]: 2750 mL/min
half-life [2, 19]: 415 min
Vd [2, 19]: 1650 L
Tmax [2, 19]: 25.2 to 40.2 min
clearance [2, 20]: 2420 mL/min
Cmax ([2]; human, plasma, ES-SCLC + topotecan, 240 mg/m2, Cycle 1 Day 1 (n = 14), read-out: Cmax): 1270 ng/mL
Vd [2, 20]: 1430 L
Tmax [2, 21]: 22.8 to 90 min
half-life ([2]; human, plasma, ES-SCLC + topotecan, 200 mg/m2, Cycle 1 Day 4 (n = 9)): 514 min
clearance [2, 21]: 2470 mL/min
Cmax ([2]; human, plasma, ES-SCLC + topotecan, 240 mg/m2, Cycle 1 Day 4 (n = 15), read-out: Cmax): 1220 ng/mL
half-life ([2]; human, plasma, ES-SCLC + topotecan, 280 mg/m2, Cycle 1 Day 4 (n = 7)): 512 min
Cmax ([2]; human, plasma, ES-SCLC + topotecan, 280 mg/m2, Cycle 1 Day 4 (n = 7), read-out: Cmax): 2220 ng/mL
